In PubChem BioAssay AID743162 (Broad Institute, 2013):
The source made the active and inactive calls. The rule behind the calls is not given here.

Test system: Mycobacterium tuberculosis replicating, CFU count, imaging
Assay: growth inhibition of replicating M. tuberculosis, dose response, CFU by imaging, dry powder, 7108-01 (AID 743162)
Conditions: stronger effect = lower value

Row | SMILES | CFU count (CFU at 10 uM, at 10 µM) | CFU count (at 64 µM)
1 | Cn1c(NC(=O)c2ccccc2)nc2ccccc21 | 1.98e+09 | 0
2 | COc1ccc(CCNc2cc(-c3ccccc3)nc3ncnn23)cc1 | 1.18e+09 | 4.3e+08 (inactive)
3 | COC(=O)C(C)Oc1ccc2cc(-c3ccccc3)c(=O)oc2c1 (stereo not drawn) | 2.01e+09 | 1e+09 (inactive)
4 | CCOC(=O)c1cc(COc2c(Cl)cccc2Cl)on1 | 1.85e+09 | 1.7e+09 (inactive)
5 | CCOc1ccc(OC(=O)c2ccc3c(=O)n4c(nc3c2)CCC4)cc1 | 1.36e+09 | 1e+09 (inactive)
6 | c1ccc(-c2n[nH]c(-c3ccccn3)n2)nc1 | 1.06e+09 | 1.3e+09 (inactive)
7 | CSc1nsc(SCc2ccc(C(=O)Nc3cccc(C)c3)cc2)n1 | -1.9e+09 | 1.31e+06
8 | CCC(C)n1nnc2c(=O)oc3ccccc3c21 (stereo not drawn) | 8.38e+08 | 6.7e+08 (inactive)
9 | COc1ccc(CNC(=O)Nc2ncc([N+](=O)[O-])s2)cc1 | 1.24e+09 | 220000
